In patent US12492182B2, “Hydroxytriazine compounds and pharmaceutical use thereof” (Japan Tobacco Inc., priority 2015, dated 2025) one finds IC50 data, which are given here for 25 compounds.

pIC50: −log10 of the molar value.

One test relates to A549 cell. The experiment in a line: Evaluation of PGE2 production inhibitory action using A549 cell (IL-1β stimulated). In kind it is cell-based, human. The following applies: Homo sapiens, A549, 18 h, IC50 value; A549 cell, recombinant IL-1β 1 ng/mL, 18 hr, PGE2 in supernatant; read-out: cell PGE2 production inhibitory activity. The method, then:
Experimental Example 2: Evaluation of PGE2 Production Inhibitory Action Using A549 Cell
A549 cell (Japan Health Sciences Foundation Research Resources Bank), which is cell line derived from humans lung cancer, was suspended in assay medium (Ham's F-12K (Wako, #080-08565) containing 2% FBS (Hyclone Laboratories, #SH30910.03), 100 units/mL penicillin and 100 μg/mL streptomycin (Invitrogen, #15140-122)), the suspension was added at 2.5×10^4 cells/100 μL/well to 96 well flat-bottom plate (Corning, #353072), and the plate was left standing for 20 hr in a CO2 incubator set at 37° C. The test article was serially diluted with DMSO (Nacalai Tesque, #13407-45), and then 20-fold diluted with the assay medium to prepare a test article solution having a ten-fold concentration of the final concentration. The final DMSO concentration during the reaction was set to 0.5% (v/v). The medium was removed from the plate in which the cell was added, new assay medium was added at 160 μL/well to the plate, and the plate was left standing for 10 min in a CO2 incubator. Then, the test article solution was added at 20 μL/well to the plate, and the plate was left standing for 30 min in a CO2 incubator. Next, recombinant humans IL-1β (R&D Systems, #201-LB) as a stimulant to enhance PGE2 production due to increase of mPGES-1 mRNA expression was added at 20 μL/well (the final concentration was 1 ng/mL) to the plate, and the plate was left standing for 18 hr in a CO2 incubator. The supernatant was collected at 180 μL/well, and the PGE2 concentration was measured using Prostaglandin E2 assay (CISbio Bioassays, #62P2APEC) according to the manual. As the reference standard for analytical curve, PGE2 (Cayman Chemical, #14010) was used. Using EnVision 2104 (Perkin Elmer), the time-resolved fluorescence at 620 nm and 665 nm relative to the excitation light at 337 nm was measured. PGE2 concentration was extrapolated from the PGE2 analytical curve. Average of the PGE2 concentrations of the respectively-treated wells was used as the data.
The PGE2 production inhibitory activity (%) of the test article was calculated according to the following Formula 3. PGE2 production inhibitory activity(%)=(PGE2A−PGE2X)/(PGE2A−PGE2B)×100 [Formula 3] • PGE2A: PGE2 concentration of vehicle-treated well • PGE2B: PGE2 concentration of blank well (no addition of recombinant humans IL-1B) • PGE2X: PGE2 concentration of test article-treated well

The target of the next test is T1, human mPGES-1 (Homo sapiens, UniProt O14684).
T1 construct: made in house; host or cells: Chinese hamster ovary-derived cells (FreeStyle CHO-S), transient transfection of pcDNA3.1(+)/human mPGES-1; microsome fraction
T1 sequence (O14684 1-152): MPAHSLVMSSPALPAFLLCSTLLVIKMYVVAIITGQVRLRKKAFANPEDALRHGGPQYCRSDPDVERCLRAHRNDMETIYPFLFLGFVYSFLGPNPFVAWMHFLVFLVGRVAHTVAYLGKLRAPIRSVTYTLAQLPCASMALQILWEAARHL
The experiment in a line: Evaluation of human mPGES-1 enzyme inhibitory activity (HTRF measurement of PGE2). The following applies: IC50 value; microsome fraction of CHO-S cells expressing human mPGES-1, PGH2 substrate, PGE2 by HTRF; read-out: humans mPGES-1 enzyme inhibitory activity. In kind it is biochemical. The method, then:
Experimental Example 1: Evaluation of Human mPGES-1 Enzyme Inhibitory Activity
The human mPGES-1 enzyme inhibitory activity of a test article was evaluated according to the report of Xu et al. (XU, D et al. MF63 [2-(6-chloro-1H-phenanthro[9,10-d]imidazol-2-yl)-isophthalonitrile], a selective microsomal prostaglandin E synthase-1 inhibitor relieves pyresis and pain in preclinical models of inflammation. J Pharmacol Exp Ther. September 2008, Vol. 326, No. 3, pages 754-763). The amount of PGE2 produced by human mPGES-1 in the presence of a test article was measured by the HTRF (homogeneous time resolved fluorescence) method, and the human mPGES-1 enzyme inhibitory activity of the test article was determined.
1) Preparation of Human mPGES-1 Expressing Cell Microsome Fraction
A DNA fragment containing human mPGES-1, which is added with a BamHI recognition cleavage sequence just before the translation initiation codon and an EcoRI recognition cleavage sequence just after the translation termination codon, was amplified by the PCR (Polymerase Chain Reaction) method using a human mPGES-1 expression plasmid DNA (pME-18S/iPGES-1) prepared in-house as a template. The purified DNA fragment was digested with BamHI and EcoRI, and ligated to pcDNA3.1(+) (Invitrogen, model number V790-20), similarly_digested with BamHI and EcoRI, by using a DNA Ligation kit ver. 2.1 (Takara Bio, model number 6022). The human mPGES-1 expression plasmid DNA was isolated from Escherichia coli DH5a (TOYOBO, model number DNA-903) transformed with the obtained ligation product. The base sequence of human mPGES-1 cloned to a vector was determined by the Dye Terminator method using BigDye Terminator v3.1 Cycle Sequencing Kit (Applied Biosystems, #4337455). The determined sequence was identical with the sequence of the protein translational region of human mPGES-1 (Accession number NM 004878) registered in the NCBI Reference Database.
Human mPGES-1 expression plasmid DNA was transfected into Chinese hamster ovary-derived cells (FreeStyle CHO-S Cell, Invitrogen, #R^800-07) by using a transgene reagent (FreeStyle MAX Reagent (Invitrogen, #16447-100)), and cultured with shaking (8% CO2, 37° C.) in a medium containing 8 mmol/L L-glutamine (GIBCO FreeStyle CHO Expression Medium, Invitrogen, #12651-022) for 48 hr.
The CHO-S cells were suspended in Homogenate Buffer (100 mmol/L potassium phosphate (pH 7.4), 250 mmol/L Sucrose, 100 mmol/L EDTA, complete EDTA free (Roche, #1873580)). Using an ultrasonic disruptor UD-201 (Tomy Seiko), the suspended cells were disrupted at output:3, duty cycle:50 for 30 seconds. The precipitate was removed by centrifugation (1,000×g, 5 min, 4° C.), and the supernatant was centrifuged (5,000×g, 10 min, 4° C.). The supernatant was further centrifuged (105,000×g, 60 min, 4° C.). The obtained precipitate was suspended in Resuspension Buffer (100 mmol/L potassium phosphate (pH 7.4), 250 mmol/L sucrose, 100 mmol/L EDTA, 10% glycerol) to give a microsome fraction.
The protein concentration of the microsome fraction was measured by the Bradford method (Protein Assay Kit, Bio-Rad). The microsome fraction was rapidly frozen in liquid nitrogen and preserved at −80° C. Human mPGES-1 in the microsome fraction was detected by Western Blot using rabbit anti-mPGES-1 polyclonal antibody (ThermoFisher Scientific, #PA1-10264).
2) Evaluation of Human mPGES-1 Enzyme Inhibitory Activity
A test article solution diluted with 0.1 mol/L potassium phosphate, pH 7.4 (hereinafter to be referred to as KPB) or DMSO (Nacalai Tesque, #13407-45) was added at 5 μL/well to 96 well V-bottom plate (Corning, #3363). The final DMSO concentration during the reaction was set to 2%(v/v). Furthermore, a microsome fraction of CHO-S cells expressing human mPGES-1, which was diluted with reduced GSH (12.5 mmol/L KPB solution, SIGMA, #G6529-25G) such that the protein concentration was 5 μg/mL, was added at 20 μL/well. […]

`CCCCOc1ccc(-c2nc(O)nc(-c3cc(CNC(=O)C(C)(C)C(F)(F)F)ccc3Cl)n2)cn1` [Example 14]: the pIC50 in the test with A549 cell is 8.33; at human mPGES-1, 8.92.

Regarding `CCC(C)(CC)C(=O)NCc1ccc(Cl)c(-c2nc(O)nc(-c3cccc(C(C)C)c3)n2)c1` [Example 15], the pIC50 in the test on A549 cell was 6.92; on human mPGES-1, 9.30.

Consider `CC(C)c1cccc(-c2nc(O)nc(-c3cc(CNC(=O)C4(C)CCCCC4)ccc3Cl)n2)c1` [Example 16], for which the pIC50 in the test with A549 cell was 7.47; at human mPGES-1 it was 9.40.

`CCOC(C)(C)C(=O)NCc1ccc(Cl)c(-c2nc(O)nc(-c3cccc(C(C)C)c3)n2)c1` [Example 17]: the pIC50 is 5.89 in the test on A549 cell and 7.17 on human mPGES-1.

Turning to `CC(C)c1cc(-c2nc(O)nc(-c3cc(CNC(=O)C(C)(C)C(F)(F)F)ccc3Cl)n2)cc(C(C)C)c1` [Example 18], the pIC50 with A549 cell was 6.59; on human mPGES-1 it was 8.28.

Consider `CC(C)(C)COc1ccc(-c2nc(O)nc(-c3cc(CNC(=O)C(C)(C)C(F)(F)F)ccc3Cl)n2)cn1` [Example 19], for which the pIC50 in the test with A549 cell was 8.77; at human mPGES-1 it was 8.48.

Take `CC(C)(C)c1cc(-c2nc(O)nc(-c3cc(CNC(=O)C(C)(C)C(F)(F)F)ccc3Cl)n2)cc(C(C)(C)C)c1` [Example 20]: the results for the pIC50 in the test with A549 cell and at human mPGES-1 were 6.82 and 7.52, respectively.

Regarding `CCCCCOc1ccc(-c2nc(O)nc(-c3cc(CNC(=O)C(C)(C)C(F)(F)F)ccc3Cl)n2)cn1` [Example 21], the pIC50 in the test with A549 cell is 8.66; at human mPGES-1 it was 8.41.

For the compound `COC1(C(=O)NCc2ccc(Cl)c(-c3nc(O)nc(-c4cccc(C(C)(C)C)c4)n3)c2)CCCC1` [Example 22], the pIC50 in the test on A549 cell is 7.80; on human mPGES-1, 9.05.

For the compound `CCCCCCOc1ccc(-c2nc(O)nc(-c3cc(CNC(=O)C(C)(C)C(F)(F)F)ccc3Cl)n2)cn1` [Example 23], the pIC50 in the test with A549 cell was 8.62; on human mPGES-1, 8.14.

With `COC1(C(=O)NCc2ccc(Cl)c(-c3nc(O)nc(-c4cccc(C(C)(C)C)c4)n3)c2)CCCCC1` [Example 24], the pIC50 with A549 cell was 8.09; on human mPGES-1, 8.80.

Consider `CCC[C@@H](C)Oc1ccc(-c2nc(O)nc(-c3cc(CNC(=O)C(C)(C)C(F)(F)F)ccc3Cl)n2)cn1` [Example 25, N-(4-chloro-3-{4-hydroxy-6-[6-((R)-1-methylbutoxy)pyridin-3-yl]-1,3,5-triazin-2-yl}benzyl)-3,3,3-trifluoro-2,2-dimethylpropionamide], for which the pIC50 in the test with A549 cell is 8.54; at human mPGES-1, 8.51.

As to `COc1ccc(-c2nc(O)nc(-c3cc(CNC(=O)C(C)(C)C(F)(F)F)ccc3Cl)n2)cn1` [Example 26], the pIC50 is 6.59 in the test on A549 cell and 9.15 at human mPGES-1.

Turning to `CCOc1ccc(-c2nc(O)nc(-c3cc(CNC(=O)C(C)(C)C(F)(F)F)ccc3Cl)n2)cn1` [Example 27], the figures for the pIC50 in the test with A549 cell and at human mPGES-1 were 7.10 and 9.15, respectively.

With `COc1ccc(-c2nc(O)nc(-c3cc(CNC(=O)C4(OC)CCCCC4)ccc3Cl)n2)cn1` [Example 28], the pIC50 in the test on A549 cell is 7.00; at human mPGES-1 it was 8.74.

Take `COc1ccc(-c2nc(O)nc(-c3cc(CNC(=O)C4(C(F)(F)F)CCCC4)ccc3Cl)n2)cn1` [Example 29]: the pIC50 with A549 cell was 7.16; on human mPGES-1, 9.10.

With `COc1ccc(-c2nc(O)nc(-c3cc(CNC(=O)C4(C(F)(F)F)CCCCC4)ccc3Cl)n2)cn1` [Example 30], the pIC50 with A549 cell was 7.48; on human mPGES-1 it was 9.10.

In the case of `CCOc1ccc(-c2nc(O)nc(-c3cc(CNC(=O)C4(OC)CCCCC4)ccc3Cl)n2)cn1` [Example 31], the results for the pIC50 in the test with A549 cell and on human mPGES-1 were 7.07 and 9.00, respectively.

For the compound `CCOc1ccc(-c2nc(O)nc(-c3cc(CNC(=O)C4(C(F)(F)F)CCCC4)ccc3Cl)n2)cn1` [Example 32], the pIC50 is 7.40 in the test on A549 cell and 9.15 on human mPGES-1.

With `CCOc1ccc(-c2nc(O)nc(-c3cc(CNC(=O)C4(C(F)(F)F)CCCCC4)ccc3Cl)n2)cn1` [Example 33], the values for the pIC50 in the test with A549 cell and on human mPGES-1 were 7.96 and 9.10, respectively.

Take `COc1ccc(-c2nc(O)nc(-c3cc(CNC(=O)C4(OC)CCCC4)ccc3Cl)n2)cn1` [Example 34]: the pIC50 with A549 cell is 6.00; on human mPGES-1, 8.80.

Take `COc1ccc(-c2nc(O)nc(-c3cc(CNC(=O)C(C)(C)C(F)(F)F)ccc3Cl)n2)cc1C(C)C` [Example 35]: the values for the pIC50 in the test with A549 cell and at human mPGES-1 were 7.85 and 8.70, respectively.

As to `COc1ccc(-c2nc(O)nc(-c3cc(CNC(=O)C(C)(C)C(F)(F)F)ccc3Cl)n2)cc1C(C)(C)C` [Example 36], the pIC50 in the test on A549 cell was 8.00; on human mPGES-1 it was 8.24.

With `CCOc1ccc(-c2nc(O)nc(-c3cc(CNC(=O)C4(OC)CCCC4)ccc3Cl)n2)cn1` [Example 37], the pIC50 with A549 cell is 6.77; at human mPGES-1, 8.52.

Consider `CC(C)c1cccc(-c2nc(O)nc(-c3cc(CNC(=O)C4(F)CC4)ccc3Cl)n2)c1` [Example 38], for which the pIC50 is 6.89 in the test with A549 cell and 8.54 at human mPGES-1.
